Consider 24 compounds from ChEMBL document CHEMBL3046788, “Synthesis and antifungal activity of N-(substituted pyridinyl)-1-methyl(phenyl)-3-(trifluoromethyl)-1H-pyrazole-4-carboxamide derivatives” (Molecules, 2012).

In brackets after ≈: the same amount, converted by molar mass.

Experiment [1] concerns Cytospora. The experiment in a line: Antifungal activity against Cytospora mandshurica assessed as inhibition of mycelium growth at 100 ug/ml. It counts as functional. The note with it: read-out: GI.
Experiment [2] has as its system Fusarium oxysporum. In words: Antifungal activity against Fusarium oxysporum assessed as inhibition of mycelium growth at 100 ug/ml. The note with it: read-out: GI. It counts as functional.
The test system of experiment [3] is Fusarium graminearum. The experiment in a line: microbe, parasite or virus in culture. Particulars: read-out: GI. It counts as functional.
In experiment [4] the test system is Cytospora. The experiment in a line: Antifungal activity against Cytospora mandshurica assessed as inhibition of mycelium growth. In kind it is functional, organism-based.
In experiment [5] the test system is Fusarium oxysporum. The experiment in a line: Antifungal activity against Fusarium oxysporum assessed as inhibition of mycelium growth. In kind it is functional, organism-based.
For experiment [6], the system named is Fusarium graminearum. The experiment in a line: Antifungal activity against Fusarium graminearum assessed as inhibition of mycelium growth. It counts as functional, organism-based.

As usually defined, the EC50 is the concentration at which the effect is half-maximal.

On to `Cn1cc(C(=O)Nc2ccc(C(F)(F)F)cn2)c(C(F)(F)F)n1`, for which the values for the inhibition of growth at 100 µg/mL in experiment [1], in experiment [2] and in experiment [3] were 35.6%, 39.1% and 51.6%, respectively.

Regarding `Cn1cc(C(=O)Nc2ccc(Br)cn2)c(C(F)(F)F)n1`, the results for the inhibition of growth at 100 µg/mL in experiment [1], in experiment [2] and in experiment [3] were 48.7%, 53.5% and 73.2%, respectively. The EC50 in experiment [4] stood at 132 µg/mL (≈ 380 µM); in experiment [5], 97.8 µg/mL (≈ 280 µM); in experiment [6], 76.3 µg/mL (≈ 219 µM).

For `Cn1cc(C(=O)Nc2ccnc(Cl)c2)c(C(F)(F)F)n1`, the inhibition of growth at 100 µg/mL in experiment [1] worked out at 9.1%; in experiment [2], 5.9%; in experiment [3], 60.1%.

On to `Cc1cccc(NC(=O)c2cn(C)nc2C(F)(F)F)n1`, for which the inhibition of growth at 100 µg/mL came to 20.8% in experiment [1], 22.3% in experiment [2] and 34.7% in experiment [3].

Regarding `Cn1cc(C(=O)Nc2ccccn2)c(C(F)(F)F)n1`, the values for the inhibition of growth at 100 µg/mL in experiment [1], in experiment [2] and in experiment [3] were 9%, 19.5% and 40.9%, respectively.

On to `Cn1cc(C(=O)Nc2ccncc2)c(C(F)(F)F)n1`, for which the inhibition of growth at 100 µg/mL is 2.9% in experiment [1], 11.8% in experiment [2] and 26.3% in experiment [3].

`Cc1ccnc(NC(=O)c2cn(C)nc2C(F)(F)F)c1`: the figures for the inhibition of growth at 100 µg/mL in experiment [1], in experiment [2] and in experiment [3] were 1.74%, 6.9% and 25.2%, respectively.

`Cn1cc(C(=O)Nc2ccc(F)cn2)c(C(F)(F)F)n1`: the inhibition of growth at 100 µg/mL came out at 13.6% in experiment [1], 22.5% in experiment [2] and 30.4% in experiment [3].

Consider `Cn1cc(C(=O)Nc2cccnc2Cl)c(C(F)(F)F)n1`, for which the inhibition of growth at 100 µg/mL in experiment [1] was found to be 4.9%; in experiment [2], 14.9%; in experiment [3] it was 40.4%.

In the case of `Cc1ccc(NC(=O)c2cn(C)nc2C(F)(F)F)nc1`, the inhibition of growth at 100 µg/mL in experiment [1] is 0%; in experiment [2] it was 8.3%; in experiment [3] it was 39.3%.

In the case of `Cn1cc(C(=O)Nc2ccc(Cl)cn2)c(C(F)(F)F)n1`, the values for the inhibition of growth at 100 µg/mL in experiment [1], in experiment [2] and in experiment [3] were 13.6%, 30.1% and 26%, respectively.

`Cn1cc(C(=O)Nc2ccnc(Br)c2)c(C(F)(F)F)n1`: the figures for the inhibition of growth at 100 µg/mL in experiment [1], in experiment [2] and in experiment [3] were 6.4%, 10.9% and 25.2%, respectively.

As to `O=C(Nc1ccncc1)c1cn(-c2ccccc2)nc1C(F)(F)F`, the inhibition of growth at 100 µg/mL was determined as 0% in experiment [1], 7.9% in experiment [2] and 11.3% in experiment [3].

Regarding `O=C(Nc1ccnc(Cl)c1)c1cn(-c2ccccc2)nc1C(F)(F)F`, the results for the inhibition of growth at 100 µg/mL in experiment [1], in experiment [2] and in experiment [3] were 0%, 0% and 16.2%, respectively.

Regarding `O=C(Nc1ccnc(Br)c1)c1cn(-c2ccccc2)nc1C(F)(F)F`, the inhibition of growth at 100 µg/mL turned out to be 0% in experiment [1], 5.7% in experiment [2] and 10.7% in experiment [3].

Consider `O=C(Nc1ccccn1)c1cn(-c2ccccc2)nc1C(F)(F)F`, for which the figures for the inhibition of growth at 100 µg/mL in experiment [1], in experiment [2] and in experiment [3] were 17%, 23.9% and 35.2%, respectively.

Take `O=C(Nc1ccncc1Br)c1cn(-c2ccccc2)nc1C(F)(F)F`: the inhibition of growth at 100 µg/mL in experiment [1] was determined as 8.4%; in experiment [2], 27.2%; in experiment [3] it was 22.6%.

Take `Cc1cnccc1NC(=O)c1cn(-c2ccccc2)nc1C(F)(F)F`: the results for the inhibition of growth at 100 µg/mL in experiment [1], in experiment [2] and in experiment [3] were 6.1%, 11.5% and 6.7%, respectively.

With `Cc1cc(NC(=O)c2cn(-c3ccccc3)nc2C(F)(F)F)ccn1`, the results for the inhibition of growth at 100 µg/mL in experiment [1], in experiment [2] and in experiment [3] were 0%, 4.23% and 9.8%, respectively.

In the case of `O=C(Nc1cccnc1)c1cn(-c2ccccc2)nc1C(F)(F)F`, the inhibition of growth at 100 µg/mL was determined as 0% in experiment [1], 10.6% in experiment [2] and 6.1% in experiment [3].

On to `O=C(Nc1ccc(Cl)cn1)c1cn(-c2ccccc2)nc1C(F)(F)F`, for which the inhibition of growth at 100 µg/mL is 10.1% in experiment [1], 14.2% in experiment [2] and 16.5% in experiment [3].

On to `Cc1ccc(NC(=O)c2cn(-c3ccccc3)nc2C(F)(F)F)nc1`, for which the values for the inhibition of growth at 100 µg/mL in experiment [1], in experiment [2] and in experiment [3] were 0%, 20.5% and 6.4%, respectively.

Consider `O=C(Nc1ccccc1-c1ccc(Cl)cc1)c1cccnc1Cl` [BOSCALID], for which the inhibition of growth at 100 µg/mL in experiment [1] worked out at 3.4%; in experiment [2], 4.3%; in experiment [3] it was 35.9%.

On to `CC1=C(C(=O)Nc2ccccc2)SCCO1` [CARBOXIN], for which the inhibition of growth at 100 µg/mL turned out to be 23.6% in experiment [2] and 56.3% in experiment [3].
